Data from US20210196789A1, “HEPARIN-BINDING DOMAIN OF IGFBP-2 IN THE TREATMENT OF METABOLIC DISORDERS” (AMOLYT PHARMA, priority 2018, published 2021).
“Also recorded” adds a separate entry of the source. No end group written: not given here. *: point of attachment. Stearoyl = CCCCCCCCCCCCCCCCCC(=O)*

Key:
AMPK = AMPK phosphorylation (pT172 immunoblot) in C2C12 myotubes; type: cell-based, mouse
Protocol: (§1) For signaling studies the cells were prepared the same way except 6-well plates were used. After 6 days incubation in differentiating medium, the cells were washed with serum-free medium. The various treatments were then added in serum free medium containing 0.1% BSA. HBD1 peptides were added and incubated for 8 hours. When utilizing IGF-I, incubation was for 15 minutes after IGF-1 addition. Following incubation the cells were lysed in RIPA buffer and sonicated. The cell lysate was centrifuged and the supernatant analyzed for either Akt or AMPK by SDS PAGE using a 10% gel followed by immunoblotting with the appropriate antibody.
To examine further the intracellular transduction pathways utilized by the HBD1 peptides, following treatment with HBD1 peptide SEQ ID NO: 73 (C18:0-HLGLEEPKK), cell lysate proteins, were separated by SDS PAGE and immunoblotted with anti-pAMPK T172.

[1] = tested on: C2C12 mouse skeletal muscle myotubes; assay: 3H-2-deoxyglucose uptake by fully differentiated C2C12 myotubes; type: cell-based
Protocol: The studies were performed using cultured, fully differentiated C2C12 mouse skeletal muscle myotubes. The cells were prepared by growing C2C12 cells to confluent density in DMEM with 25 mM glucose and 10% fetal bovine serum in 24 well plates. At this time, the medium was changed to differentiation medium (DMEM with 25 mM glucose and 2% horse serum) for 6 days with medium changed every third day. The various treatments were diluted in serum-free medium and, after washing the cells with serum-free medium, were added to the cells and incubated for 2 hours or alternative times, depending on the treatment. At the end of incubation period, the media was removed and 1.0 ml of glucose-free Krebs ringer bicarbonate buffer (pH 7.4), containing the same treatments, was added and incubation continued for 10 minutes. At the end of the 10 min incubation period, ^3H-2-deoxyglucose ([…]) (specific activity=8 Ci/mmole) was added directly to all wells, and the incubation continued for an additional 10 min. The wells were then rinsed three times with ice cold phosphate buffered saline, the cells were extracted with 0.5 N NaOH, and the ^3H-2-deoxyglucose content of the cell lysate quantitated by scintillation counting.

[2] = tested on: glucose telemetered ob/ob mice; assay: Basal blood glucose and IPGTT in glucose-telemetered ob/ob mice, 28 days of twice daily treatment; type: in vivo, mouse; conditions: for glucose intolerance: glucose telemetered ob/ob mice, 1 and 3 mg/kg s.c. twice daily, 27-28 days, vs vehicle
Protocol: To further assess the effects of HBD1 peptides on glucose and insulin metabolisms, basal blood glucose and glucose response to an intraperitoneal glucose tolerance test (IPGTT) were assessed in glucose-telemetered obese ob/ob mice after twice daily administration of HBD peptides for 28 consecutive days. Implantation of glucose telemetry device (HD-XG, Data Science International) was carried out according to known protocols.
A dose of HBD peptide fragment of SEQ ID NO: 73 (C18:0-HLGLEEPKK) was administered twice daily at 8-hour±1 hour interval between the two daily administrations. 24 V-Lepob/J (Ob/Ob) male mice (The Jackson Laboratory, Farmington, Conn. USA) were administered subcutaneously with vehicle (NaCl 0.9%) (Control group) or with the peptide at 1 and 3 mg/kg (Test groups) (n=5-8 animals for each group) twice daily for 28 days. The first day of dosing was designated as Day 1. Bolus injection was carried out using a sterile syringe and the needle was introduced subcutaneously, 2 to 4 injection sites were used in rotation. The hair of the animals on the injection area was clipped prior to the first injection and then as necessary during the treatment period. The volume administered was 5 mL/kg/administration. Individual dose volumes were calculated using the latest body weight. On day 27, 16-hour mean blood glucose levels were assessed in normal fed conditions. On day 28, fasted (4 hours) mice were injected intraperitoneally with glucose at 1 g/kg. Plasma blood glucose profile (expressed as mg/dL) was recorded every minute up to 3-hour post glucose injection.
Intraperitoneal glucose tolerance test (IPGTT)—On the morning of the IGPTT day (day 28), 2-hour fasted animals were treated with vehicle or with the HBD fragment. Glucose solution was administered 2 hours±15 minutes post-dosing (vehicle or a peptide as set forth in SEQ ID NO: 73 (C18:0-HLGLEEPKK). Blood glucose was monitored from 10 minutes before (fasting condition) to 3-hour post-glucose challenge. Food was re-introduced 4 hours post-glucose challenge. The second treatment of the day (the HBD fragment or vehicle) was performed 2 hours after food re-introduction.

3T3-LI adipocytes = assay: [3H]-2-deoxyglucose uptake by fully differentiated 3T3-LI adipocytes; type: cell-based, mouse; conditions: 3 μg/ml for 24 hours
Protocol: 3T3-LI cells are a mouse fibroblast cell line which when cultured under specific conditions, differentiate into adipocytes.
Differentiation of 3T3-LI cells into adipocytes was achieved using the following protocol. 3T3-L1 cells were seeded in 24-well plates and cultured in 3T3-L1 maintenance medium (DMEM containing 10% fetal bovine serum, 4 mM L-glutamine 1 mM, sodium pyruvate) until the cells were 100% confluent. The cells were then fed with 3T3-L1 maintenance medium and cultured for a further 48 h. To initiate differentiation into adipocytes, the medium was changed to Differentiation medium 1 (DMEM containing 10% fetal bovine serum, 4 mM L-glutamine, 1 mM sodium pyruvate, 0.5 mM IBMX, […]), and cultured for a further 2 days. The medium was then changed to Differentiation medium 2 (DMEM containing 10% fetal bovine serum, 4 mM L-glutamine, 1 mM sodium pyruvate, 1 mg/ml insulin), and cultured for a further 2 days. The medium was then changed to Adipocyte Maintenance medium (DMEM containing 10% fetal bovine serum, 4 mM L-glutamine, 1 mM sodium pyruvate), and cultured for a further 7 days. During this time, the medium was changed every other day. The now fully differentiated adipocytes were utilized for glucose uptake experiments (day 11 from initiation of differentiation). Stock solutions of the HBD1 peptides to be tested were prepared by dilution with 0.9% NaCl solution under sterile conditions in a laminar flow cabinet to a concentration of 1 mg/ml, based on net peptide content. The solutions were homogenized by gentle inversion. Test items were prepared from the stock solutions, and remaining stock solution was aliquoted and stored at −20° C. and used without repeated freeze-thaw cycles.
Glucose uptake experiments were carried our using the following protocol. Prior to beginning the experiment, 100 ml of Krebs Ringer bicarbonate buffer (KRBB)(25 mM Hepes pH 7.4, 118 mM NaCl, 5 mM NaHCO3, 4.7 mM KCl, 1.2 mM KH2PO4, 1.2 mM MgSO4, 2.5 mM CaCl2, 0.2% BSA—Filtered using a 0.2 μm filter) and 100 ml of Incubation medium (DMEM containing 4 mM L-glutamine, 1 mM sodium pyruvate, 1% penicillin streptomycin, 0.2% BSA—Filtered using a 0.2 μm filter) were pre-warmed to 37° C., and 500 ml of KRBB was chilled on ice. Stock solutions of test compounds were diluted to 3 μg/ml final concentrations in pre-warmed Incubation medium and in pre-warmed KRBB. Insulin (positive control), previously diluted 1:1000 in sterile 0.9% NaCl, was further diluted in 10 ml of both medium and buffer to a final concentration of 1 nM. All traces of the medium were carefully removed from the cells using a fine tip. 1 ml of incubation medium containing study compounds or vehicle was added to the appropriate wells. No insulin was added at this time. […]

Akt = Akt phosphorylation (pS473 immunoblot) in C2C12 myotubes; type: cell-based, mouse; conditions: 8 hours incubation (FIG. 6)
Protocol: as §1
To examine the intracellular transduction pathways utilized by the HBD1 peptides, following treatment with HBD1 peptide SEQ ID NO: 73 (C18:0-HLGLEEPKK), cell lysate proteins were separated by SDS PAGE and immunoblotted with anti-Akt pS473 antibodies.

[3] = tested on: B6.V-Lepob/J mice (ob/ob); assay: Intraperitoneal glucose tolerance test in ob/ob mice after 15 days of twice daily treatment; type: in vivo, mouse; conditions: 3 mg/kg s.c. twice daily for 15 days, 45 min after 1 g/kg i.p. glucose, vs vehicle
Protocol: After being acclimatized 7 days to the laboratory conditions, nine-week-old male B6.V-Lepob/J. mice (Charles River) were subcutaneously administered with vehicle (NaCl 0.9%) or with a peptide as set forth in SEQ ID NO: 73 (C18:0-HLGLEEPKK) at 3 mg/kg (n=5 animals for each group) twice daily for 15 days. On day 15, fasted (overnight) mice were injected intraperitoneally with glucose at 1 g/kg. Plasma blood glucose (expressed as mmol/L) was recorded at 45 minutes post glucose injection.

mice = mice (Xi, 2013); cited from earlier work
[4] = listed as acylated HBD1 (3-11) fragment

With `c1cc(-c2cnn3cc(-c4ccc(OCCN5CCCCC5)cc4)cnc23)ccn1` [Compound C, reference compound] the “effect on SEQ ID NO: 73-induced AMPK phosphorylation” value (AMPK; C2C12 myotubes treated with SEQ ID NO: 73 (FIG. 7)) was “completely abolished; also recorded: prevented” and the “effect on SEQ ID NO: 73-stimulated glucose uptake” value ([1]; C2C12 myotubes, SEQ ID NO: 73 alone or together with insulin (FIG. 8)) was “completely abolished; also recorded: prevented”.
With “C18:0-HLGLEEPKK (Stearoyl-HLGLEEPKK) [SEQ ID NO: 73]” the “effect on fasting glucose and glucose excursion at the high dose” value ([2]; 3 mg/kg, after 4 weeks) was “marked effect”, the “glucose excursion following IPGTT” value ([2]; after 4 weeks of administration, 3-hour profile after 1 g/kg i.p. glucose) was “decreased” and the fasting glucose levels ([2]; after 4 weeks of administration, 10 min prior to IPGTT) was “decreased fasting glucose levels”. For the same molecule, the “16-hour average blood glucose levels” value ([2]; day 27, normal fed conditions) was “markedly decrease 16-hour average blood glucose levels”, the glucose intolerance [2] was “improved glucose intolerance in a dose-dependent manner” and the glucose intolerance [2, 4] was “improves glucose intolerance”. The “phosphorylated AMPK” value (AMPK; C2C12 myotubes, 8 hours incubation (FIG. 7)) was “dose-dependent increase in phosphorylated AMPK; also recorded: dose-dependent phosphorylation (activation) of the AMPK pathway”, the “glucose uptake by 3T3-LI adipocytes” value (3T3-LI adipocytes) was “stimulated increased glucose uptake” and the “phosphorylated Akt” value (Akt) was “dose-related increase in phosphorylated Akt; also recorded: dose-dependent phosphorylation (activation) of the Akt pathway”. The “plasma glucose levels in response to the IP glucose tolerance test” value [3] was “reduced the plasma glucose levels”, the “plasma glucose levels in response to the IP glucose tolerance test” value [3, 4] was “improves glucose intolerance” and the “glucose uptake by C2C12 myotubes with insulin, separate experiment” value ([1]; 1.5 μM together with insulin (FIG. 8)) was “act additively with insulin; also recorded: in an additive manner with insulin”. The “glucose uptake by C2C12 myotubes, separate experiment” value ([1]; 1.5 μM, alone (FIG. 8)) was “increased glucose uptake”, the “glucose uptake by C2C12 myotubes” value ([1]; 0.8, 1.5, 2.3 μM, 1.5 μM for 2, 4, 16 hours, vs vehicle-treated controls (FIGS. 5A-5B)) was “stimulated increased glucose uptake as compared with vehicle-treated controls in both a dose- and time-dependent manner; also recorded: dose-dependent (FIG. 5A) and time-dependent (FIG. 5B) increases in glucose uptake” and the “glucose uptake by C2C12 myotubes in combination with insulin” value ([1]; in combination with insulin (FIG. 5C)) was “additive increase in glucose uptake”.
For HHLGLEEPKK [SEQ ID NO: 16], the “glucose uptake by 3T3-LI adipocytes” value (3T3-LI adipocytes) was “stimulated increased glucose uptake”.
In the case of HLGLEEPKK [SEQ ID NO: 10], the “glucose uptake by 3T3-LI adipocytes” value (3T3-LI adipocytes) is reported as “stimulated increased glucose uptake”.
For KHHLGLEEPKKLR [SEQ ID NO: 1], the “body weight and fat accumulation” value (mice) is given as “decrease body weight and fat accumulation”, the glucose tolerance (mice) is given as “no effect on glucose tolerance” and the “glucose uptake by 3T3-LI adipocytes” value (3T3-LI adipocytes) is given as “stimulated increased glucose uptake”.
